Key:
Format in all cases: cell-based
Rap1 = Rap1 activation affinity assay, Hek293 cells; settings: 10 μM; for Effect of inhibitor on isoproterenol's activation of endogenous Rap1: 20 minutes
Procedure: The Rap1 activation affinity assay was performed as follows. A GST fusion protein of the Rap1-binding domain of RalGDS (GST-RalGDS, Dr. Bos, Utrecht University, The Netherlands) was expressed in E. coli following induction by isopropyl-1thio-β-D-galactopyranoside. Active Rap1 was isolated as previously described (Franke et al., EMBO J. 16:252-9, 1997). Briefly, equivalent amounts of supernatants (500 μg) were incubated with GST-RalGDS-Rap1 binding domain coupled to glutathione beads. Following a one hour incubation at 4° C., beads were pelleted and rinsed threes times with ice-cold lysis buffer. The protein was eluted from the beads using 2× Laemmli buffer and applied to a 12% SDS-polyacrylamide gel. Proteins were tansferred to PVDF membrane (Millipore Corporation, Bedford, Mass.), blocked in 5% milk for one hour and, probed with either α-Rap1/Krev-1 (Santa Cruz Biotechnology Inc., Santa Cruz, Calif.) or Flag antibody (Sigma, St Louis, Mo.) overnight at 4° C., followed by an HRP-conjugated anti-rabbit secondary antibody (or anti-mouse secondary for anti-Flag western blots). Proteins were detected using enhanced chemiluminescence.
Hek293 cells (ATCC) were cultured in DMEM plus 10% fetal calf serum, penicillin/streptomycin, and L-glutamine at 37° C. in 5% CO2. Cells were maintained in serum-free DMEM for 16 hours at 37° C. in 5% CO2 prior to treatment with H89 (10 μM) or PP2 (10 μM) for 20 minutes, and then treated with isoproterenol (10 μM) for 5 minutes. Cell lysates were prepared, and a Rap1 activation affinity assay performed as described in Example 1. […] This activation required Src family kinases (SFKs) as it was blocked by the inhibitor PP2.
The mechanism of ERK activation by isoproterenol in Hek293 cells was determined as follows. Hek293 cells were transfected with Flag-Rap1 along with pcDNA3, SrcS17A, SrcS17D, or SrcWT as described above. […]

ERK1/2 = test: ERK phosphorylation Western blot, Hek293 cells; settings: 10 μM, 20 minutes pretreatment
Procedure: To examine the downstream consequences of Src-dependent signaling in Hek293 cells, ERK activation was measured using pERK antibodies (pERK1/2). Hek293 cells received no pretreatment or were pretreated for 20 minutes with H89 (10 μM), PP2 (10 μM), or LY (10 μM), and stimulated for 5 minutes with isoproterenol (10 μM), Forskolin (10 μM), or 100 ng/ml EGF, using the methods described above. Cell lysates were analyzed by Western blotting for the presence of pERK1/2 (New England Biolabs) or total ERK2 (Santa Cruz Biotechnology) as a control for protein loading.
To determine the role of PKA phosphorylation of Src serine 17 in ERK activation by cAMP, Hek293 cells were transfected with myc-ERK2 in the presence or absence of SrcS17A or SrcS17D, and stimulated with 10 μM isoproterenol. MycERK2 was immunoprecipitated from cell lysates using an agarose-coupled Myc antibody followed by western blotting for phospho-ERK (pMycERK2, upper panel) or total MycERK2 with a Myc antibody, as a control for protein loading.

[1] = test system: complex including C3G, Crk-L, and Cb1; test: Cb1/Crk-L/C3G complex formation (myc-Cb1 immunoprecipitation), NIH3T3 cells
Description: To determine if Cb1 forms part of a complex, cells were stimulated with Forskolin in the presence or absence of H89 or PP2 and lysates generated as described above. Myc-Cb1 was immunoprecipitated from treated cells and the pellets analyzed by Western blot using antibodies specific for Crk-L and C3G. Total cell lysates were examined for myc-Cb1 by Western blot using a myc antibody (Santa Cruz Biotechnology Inc.). NIH3T3 cells express Crk-L, an isoform of Crk that is constitutively bound to C3G.

Cb1 = Cb1 tyrosine phosphorylation (immunoprecipitation/Western blot), NIH3T3 cells; settings: 10 μM, 20 minutes
Procedure: To determine the role of C3G and its complex in Rap1 activation, NIH3T3 cells were grown and treated for 20 minutes in the presence or absence of H89 (10 μM) or PP2 [AG1879; 4-amino-5-(4-chlorophenyl)-7-(t-butyl)pyazolo[3,4-d]pyrimidine, LY294002 [2-(4-Morpholinyl)-8-phenyl-4H-1-bemzopyran-4-one] (10 μM, Cal Biochem), treated with Forskolin (10 μM, Cal Biochem) for five minutes, and cell lysates prepared, as described above. Endogenous Cb1 was immunoprecipitated using a Cb1 antibody (Santa Cruz Biotechnology Inc.) from cell lysates and analyzed by Western blot for tyrosine phosphorylation, using a pTyr antibody (Santa Cruz Biotechnology Inc.) as described above. Briefly, for immunoprecipitation of Cb1, equal amounts of cell lysate per condition were precipitated at 4° C. for 4 to 6 hours in lysis buffer. Proteins were resolved by SDS-PAGE, blotted onto PVDF membranes and probed with the appropriate antibodies. All Western blots and immunoprecipitations were performed at least three times.

Q: Which “Effect of inhibitor on isoproterenol's activation of endogenous Rap1” value (Rap1) does the source give for `CC(C)(C)n1nc(-c2ccc(Cl)cc2)c2c(N)ncnc21` [PP2, 4-amino-5-(4-chlorophenyl)-7-(t-butyl)pyazolo[3,4-d]pyrimidine] here?
A: blocked

Q: What about the “Effect of inhibitor on isoproterenol's phosphorylation of ERK” value (ERK1/2) of the same compound?
A: inhibited

Q: And the “Effect on Forskolin-stimulated C3G/Crk-L/Cb1 complex formation” value [1]?
A: blocked

Q: What about the “Effect on Forskolin-stimulated Cb1 tyrosine phosphorylation” value (Cb1) of the same compound?
A: inhibited

Q: `CC(C)NCC(O)c1ccc(O)c(O)c1` (stereo not drawn) [isoproterenol] was tested. Which “Activation of endogenous Rap1” value (Rap1; 5 minutes) did it give?
A: activated endogenous Rap1

Q: Which “Effect of inhibitor on isoproterenol's activation of endogenous Rap1” value (Rap1) does the source give for `O=S(=O)(NCCNC/C=C/c1ccc(Br)cc1)c1cccc2cnccc12` [H89, N-[2(Bromocimamylamino)ethyl]-5-isoquinolinesulfonamide] here?
A: PKA-dependent

Q: And the “Effect of inhibitor on isoproterenol's phosphorylation of ERK” value (ERK1/2)?
A: inhibited

Q: What about the “Effect on Forskolin-stimulated C3G/Crk-L/Cb1 complex formation” value [1] of the same compound?
A: blocked

Q: What about the “Effect on Forskolin-stimulated Cb1 tyrosine phosphorylation” value (Cb1) of the same compound?
A: inhibited

From patent publication US20050037446A1, “Agents that recognize src when phosphorylated at serine 17” (priority 2001, published 2005)
